Measured values as given in patent US20070264250A1, “Composition for Skin-Whitening and Wrinkle-Care” (priority 2004, published 2007).

Format: physicochemical
Conditions: 1 mM, pH 7
Protocol: Stabilities of 2-o-α-glucopyranosyl-L-ascorbic acid and ascorbic acid in an aqueous solution were compared.
(1) 2-o-α-glucopyranosyl-L-ascorbic acid, (2) ascorbic acid, and (3) 2-o-α-glucopyranosyl-L-ascorbic acid and 10 units of α-glucosidase were added to 50 mM potassium phosphate buffer solution (pH 7.0) so that a concentration of each component was 1 mM, to produce test groups. The test groups were stored at 37° C., sampled every day for 5 days, and quantitatively analyzed.
The quantitative analysis (HPLC analysis) for test materials was conducted under conditions described in the following Table 1. An amount of remaining 2-o-α-glucopyranosyl-L-ascorbic acid or ascorbic acid which was not degraded was reduced by an initial concentration, and stability was evaluated using the ratio.
However, almost all vitamin C was degraded within 2 days. […] As well, it was confirmed that converted vitamin C was immediately degraded.

O=C1O[C@H]([C@@H](O)CO)C(O)=C1O [vitamin C, ascorbic acid]
time within which almost all was degraded: ≤ 2 days
